Reference: patent publication EP0549365A1, “Thiazolidine compounds, their preparation and their therapeutic uses” (Sankyo Company Limited, priority 1991, dated 1993)

System: diabetic male mice of the KK strain
Assay: Hypoglycemic activity (blood glucose lowering in diabetic KK mice)
Assay type: in vivo
Details: Mus musculus, 50 mg/kg oral, blood from tail vein after 18 hours free feeding, relative to solvent group, read-out: BGL lowering rate (%)
Method: The test animals used were diabetic male mice of the KK strain, each having a body weight more than 40 g. Each animal was orally administered 50 mg/kg of a test compound and then allowed to feed freely for 18 hours. At the end of this time, blood was collected from the tail veins without anesthesia. The blood glucose level (BGL) was determined by means of a glucose analyzer (GL-101, manufactured by Mitsubishi Kasei Co.).
The blood glucose lowering rate was calculated by the following equation: Blood glucose lowering rate (%) = [(BGLs - BGLt )/BGLs ] x 100 [formula] where: BGLs is the BGL in the group administered a solvent; and BGLt is the BGL in the group administered a test compound.

Row | SMILES | inhibition in vivo at 50 mg/kg
1 | COc1c(C)c(C)c(OC)c(CCCCOc2ccc(CC3SC(=O)NC3=O)cc2)c1C (centres unmarked) [Example 12] | 24%
2 | COc1c(C)c(CCCCOc2ccc(CC3SC(=O)NC3=O)cc2)c(OC)c(OC)c1OC (centres unmarked) [Example 19] | 26.6%
3 | Cc1c(C)c(O)c(CCC(C)(O)COc2ccc(CC3SC(=O)NC3=O)cc2)c(C)c1O (centres unmarked) [Control 2, 5-{4-[4-(2,5-Dihydroxy-3,4,6-trimethylphenyl)-2-hydroxy-2-methylbutoxy]benzyl}thiazolidine-2,4-dione, reference compound] | 10.4%
4 | COc1cc(CCOc2ccc(CC3SC(=O)NC3=O)cc2)c(OC)c2ccccc12 (centres unmarked) [Example 34] | 40%
5 | CC1=C(C)C(=O)C(CCC(C)(O)COc2ccc(CC3SC(=O)NC3=O)cc2)=C(C)C1=O (centres unmarked) [Control 1, 5-{4-[2-Methyl-2-hydroxy-4-(3,5,6-trimethyl-1,4-benzoquinon-2-yl)butoxy]benzyl}thiazolidine-2,4-dione, reference compound] | -0.5%
6 | CC(=O)Oc1c(C)c(C)c(OC(C)=O)c(CCOc2ccc(CC3SC(=O)NC3=O)cc2)c1C (centres unmarked) [Example 21] | 33.4%
7 | CC(=O)Oc1c(C)c(C)c(OC(C)=O)c(Oc2ccc(CC3SC(=O)NC3=O)cc2)c1C (centres unmarked) [Example 7, 5-[4-(2,5-Diacetoxy-3,4,6-trimethylphenoxy)benzyl]thiazolidine-2,4-dione] | 24%
8 | COc1c(C)c(C)c(OC)c(COc2ccc(CC3SC(=O)NC3=O)cc2)c1C (centres unmarked) [Example 9] | 28.8%
9 | COc1c(C)c(COc2ccc(CC3SC(=O)NC3=O)cc2)c(OC)c2ccccc12 (centres unmarked) [Example 33] | 28.4%
10 | COc1c(C)c(C)c(OC)c(CCCOc2ccc(CC3SC(=O)NC3=O)cc2)c1C (centres unmarked) [Example 10, 5-{4-[3-(2,4,5-trimethyl-3,6-dimethoxyphenyl)propoxy]benzyl}thiazolidine-2,4-dione] | 46%
11 | COc1cc(COc2ccc(CC3SC(=O)NC3=O)cc2)c(OC)c2ccccc12 (centres unmarked) [Example 31] | 32.9%
12 | COc1c(C)c(CCOc2ccc(CC3SC(=O)NC3=O)cc2)c(OC)c(OC)c1OC (centres unmarked) [Example 16] | 20.2%
13 | COc1c(C)c(CCCOc2ccc(CC3SC(=O)NC3=O)cc2)c(OC)c(OC)c1OC (centres unmarked) [Example 18] | 22%
14 | CC(=O)Oc1c(C)c(C)c(OC(C)=O)c(CCCOc2ccc(CC3SC(=O)NC3=O)cc2)c1C (centres unmarked) [Example 23] | 24.4%
